Structures can show the parent of a compound that is named as a salt. Where two headings read alike, the source gives them in different places.
Legend:
human PIM2 = human PIM2 (Homo sapiens (Human), UniProt Q9P1W9); experiment: PIM2 kinase inhibition assay: Dowex technique; assay type: biochemical; details: ATP 4 μM, Aktide 5 μM, enzyme 1.5 nM; read-out: PIM-2 IC50
How it was run: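 Radiometric Dowex read-out, run as for PIM1, with 50 mM HEPES pH 7.5, 1 mM MgCl2, 1 mM DTT, 3 μM Na3VO4 and 0.2 mg/mL BSA. Final conditions: 5 μM Aktide substrate, 4 μM ATP spiked with 1 nM 33P-γ-ATP, 1.5 nM full-length human enzyme.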

MV-4-11 cells = experiment: In vitro cell proliferation assay (CellTiter-Glo), MV-4-11; assay type: cell-based
human PIM1 = human PIM1 (Homo sapiens (Human), UniProt P11309); experiment: Biochemical assay for inhibitors of PIM1 kinase activity (trans-phosphorylation, Dowex technique); details: ATP 200 μM, Aktide 25 μM, enzyme 1 nM; read-out: PIM-1 IC50
How it was run: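 Full-length human PIM1 (1 nM) phosphorylates Aktide (25 μM) with 200 μM ATP plus 6 nM ^33P-γ-ATP in HEPES 50 mM pH 7.5, 10 mM MgCl2, 1 mM DTT, 3 μM NaVO3, 0.2 mg/mL BSA. Unreacted ATP captured on Dowex resin, supernatant β-counted; IC50 from ten-point 1:3 dilution sigmoidal fit.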

BaF3-PIM1 cells = experiment: In vitro cell proliferation assay (CellTiter-Glo), BaF3-PIM1; assay type: cell-based; details: 72 hours

Sequence of human PIM1 (P11309 whole entry): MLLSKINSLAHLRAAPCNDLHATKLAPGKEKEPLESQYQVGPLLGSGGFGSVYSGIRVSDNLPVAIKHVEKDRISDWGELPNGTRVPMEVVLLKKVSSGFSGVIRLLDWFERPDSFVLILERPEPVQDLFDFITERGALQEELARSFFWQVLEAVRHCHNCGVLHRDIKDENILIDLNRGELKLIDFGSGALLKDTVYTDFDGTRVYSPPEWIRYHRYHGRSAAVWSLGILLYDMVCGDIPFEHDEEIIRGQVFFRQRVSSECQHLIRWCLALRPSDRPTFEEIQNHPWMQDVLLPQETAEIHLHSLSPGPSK
Sequence of human PIM2 (Q9P1W9 whole entry): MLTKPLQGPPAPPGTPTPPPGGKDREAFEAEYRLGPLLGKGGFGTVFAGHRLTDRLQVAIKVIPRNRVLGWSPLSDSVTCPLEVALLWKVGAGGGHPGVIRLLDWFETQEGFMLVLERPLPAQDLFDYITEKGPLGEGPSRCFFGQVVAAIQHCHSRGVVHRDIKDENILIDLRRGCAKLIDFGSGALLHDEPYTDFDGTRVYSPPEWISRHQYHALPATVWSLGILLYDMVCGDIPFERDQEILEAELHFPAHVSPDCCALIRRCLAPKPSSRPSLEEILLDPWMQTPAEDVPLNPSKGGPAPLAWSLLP

Row | IC50 (human PIM2) [µM] | IC50 (MV-4-11 cells; 72 hours, read-out: MV4-11 IC50) [µM] | IC50 (human PIM1) [µM] | IC50 (BaF3-PIM1 cells) [µM] | IC50 (MV-4-11 cells; Homo sapiens, MV4-11, 72 hours) [µM] | SMILES
1 | 0.032 | 0.47 | 0.008 | 0.175 | – | COc1c(C)cc(-c2c(-c3cccc(OC(F)(F)F)c3)cc3n2[C@@H](CCN)CNC3=O)cc1C [Compound 128, 4S)-4-(2-aminoethyl)-6-(4-methoxy-3,5-dimethyl phenyl)-7-[3-(trifluoromethoxy)phenyl]-3,4-dihydropyrrolo[1,2-a]pyrazin-1(2H)-one hydrochloride]
2 | 0.012 | – | 0.003 | 0.198 | 0.71 | COc1ccc(-c2c(-c3cccc(OC(F)(F)F)c3)cc3n2[C@@H](CCN)CNC3=O)cc1Cl [Compound 129, (4S)-4-(2-aminoethyl)-6-(3-chloro-4-methoxyphenyl)-7-[3-(trifluoromethoxy)phenyl]-3,4-dihydropyrrolo[1,2-a]pyrazin-1(2H)-one hydrochloride]
3 | 0.066 | – | 0.002 | 4.33 | 7.05 | CN(C)Cc1ccc(-c2c(-c3cccc(OC(F)(F)F)c3)cc3n2[C@@H](CCCN)CNC3=O)cc1 [Compound 134, (4S)-4-(3-aminopropyl)-6-{4-[(dimethylamino)methyl]phenyl}-7-[3-(trifluoromethoxy)phenyl]-3,4-dihydropyrrolo[1,2-a]pyrazin-1(2H)-one dihydrochloride]
4 | 0.174 | – | 0.034 | 0.491 | 4.89 | CC(=O)NCC[C@H]1CNC(=O)c2cc(-c3cccc(OC(F)(F)F)c3)c(-c3ccccc3)n21 [Compound 142, N-(2-{(4S)-1-oxo-6-phenyl-7-[3-(trifluoromethoxy)phenyl]-1,2,3,4-tetrahydropyrrolo[1,2-a]pyrazin-4-yl}ethyl)acetamide]

Row | SMILES | IC50 (human PIM2) [µM] | IC50 (MV-4-11 cells; 72 hours, read-out: MV4-11 IC50) [µM] | IC50 (human PIM1) [µM] | IC50 (BaF3-PIM1 cells) [µM] | IC50 (MV-4-11 cells; Homo sapiens, MV4-11, 72 hours) [µM]
5 | CS(=O)(=O)NCC[C@H]1CNC(=O)c2cc(-c3cccc(OC(F)(F)F)c3)c(-c3ccccc3)n21 [Compound 147, N-(2-{(4S)-1-oxo-6-phenyl-7-[3-(trifluoromethoxy)phenyl]-1,2,3,4-tetrahydropyrrolo[1,2-a]pyrazin-4-yl}ethyl)methanesulfonamide] | 0.172 | – | 0.026 | 0.638 | 3.62
